Measurements: US10278969B2, “Pharmaceutical dosage forms” (Novartis AG, priority 2013, dated 2019)

Assay: Chemical stability: hydrolysis degradation of the Compound on processing
Assay type: physicochemical
Conditions: urea bond cleavage into aniline and aminopyrimidine degradants
Excerpt: In view of the above mentioned difficulties, the inventors tried to compact the voluminous Compound together with excipients without the use of aqueous media. […] There could be various root causes for the degradation problem. The inventor had run numerous experimental trials to identify the cause.

Chemical stability (hydrolysis degradation products): prone to hydrolysis
SMILES: CCN1CCN(c2ccc(Nc3cc(N(C)C(=O)Nc4c(Cl)c(OC)cc(OC)c4Cl)ncn3)cc2)CC1 [the Compound, 3-(2,6-Dichloro-3,5-dimethoxy-phenyl)-1-{6-[4-(4-ethyl-piperazin-1-yl)-phenylamino]-pyrimidin-4-yl}-1-methyl-urea]
